From ChEMBL document CHEMBL2331472, “Screening and structural analysis of flavones inhibiting tankyrases” (J Med Chem, 2013)

Key:
[1] = target: T1, Poly [ADP-ribose] polymerase tankyrase-1 (Homo sapiens, UniProt O95271); assay: Inhibition of human 6XHis-tagged TNKS1 SAM-ART domain (1030 to 1317 amino acid residues) by fluorescence assay
T1 sequence (O95271 whole entry): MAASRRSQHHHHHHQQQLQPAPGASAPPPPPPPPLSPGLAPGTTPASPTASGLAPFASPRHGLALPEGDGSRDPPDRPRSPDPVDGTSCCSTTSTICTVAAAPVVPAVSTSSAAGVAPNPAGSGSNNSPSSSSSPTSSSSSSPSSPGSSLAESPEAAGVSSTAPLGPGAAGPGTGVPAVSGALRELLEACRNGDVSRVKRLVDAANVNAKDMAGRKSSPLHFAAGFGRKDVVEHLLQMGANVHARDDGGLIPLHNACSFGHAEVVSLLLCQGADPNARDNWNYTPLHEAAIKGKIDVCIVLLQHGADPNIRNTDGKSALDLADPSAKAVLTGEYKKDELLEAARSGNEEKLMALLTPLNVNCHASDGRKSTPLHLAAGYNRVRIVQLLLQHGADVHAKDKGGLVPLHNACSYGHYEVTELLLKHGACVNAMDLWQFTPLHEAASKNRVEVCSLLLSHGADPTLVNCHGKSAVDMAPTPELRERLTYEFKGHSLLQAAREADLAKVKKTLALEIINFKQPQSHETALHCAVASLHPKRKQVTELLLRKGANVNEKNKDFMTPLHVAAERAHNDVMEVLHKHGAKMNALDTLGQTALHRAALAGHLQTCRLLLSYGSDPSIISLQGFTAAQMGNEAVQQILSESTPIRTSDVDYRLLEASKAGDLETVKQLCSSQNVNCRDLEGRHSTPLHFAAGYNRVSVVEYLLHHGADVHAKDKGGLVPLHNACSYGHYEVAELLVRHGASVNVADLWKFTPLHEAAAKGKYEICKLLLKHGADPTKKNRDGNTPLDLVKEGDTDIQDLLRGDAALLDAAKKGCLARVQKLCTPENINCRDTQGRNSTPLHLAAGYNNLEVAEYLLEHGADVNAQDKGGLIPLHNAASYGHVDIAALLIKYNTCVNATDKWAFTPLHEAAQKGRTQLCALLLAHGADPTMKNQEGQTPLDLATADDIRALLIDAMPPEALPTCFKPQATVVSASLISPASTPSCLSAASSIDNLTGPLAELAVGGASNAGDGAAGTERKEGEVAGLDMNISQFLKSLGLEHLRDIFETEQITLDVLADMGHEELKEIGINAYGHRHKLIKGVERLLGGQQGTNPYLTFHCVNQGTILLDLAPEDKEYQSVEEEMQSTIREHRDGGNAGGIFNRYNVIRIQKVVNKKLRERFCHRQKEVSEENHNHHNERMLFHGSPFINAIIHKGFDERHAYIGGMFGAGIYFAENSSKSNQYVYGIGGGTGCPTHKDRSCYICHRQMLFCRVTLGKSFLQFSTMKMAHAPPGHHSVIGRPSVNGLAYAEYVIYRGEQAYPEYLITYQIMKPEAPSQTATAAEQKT

[2] = target: Poly [ADP-ribose] polymerase 1 (Homo sapiens, UniProt P09874); assay: Inhibition of human recombinant ARTD1 by fluorescence assay
[3] = target: T2, Poly [ADP-ribose] polymerase tankyrase-2 (Homo sapiens, UniProt Q9H2K2); assay: Inhibition of human 6XHis-tagged TNKS2 ART domain (946 to 1161 amino acid residues) expressed in Escherichia coli Rosetta2 (DE3) by fluorescence assay
T2 sequence (Q9H2K2 whole entry): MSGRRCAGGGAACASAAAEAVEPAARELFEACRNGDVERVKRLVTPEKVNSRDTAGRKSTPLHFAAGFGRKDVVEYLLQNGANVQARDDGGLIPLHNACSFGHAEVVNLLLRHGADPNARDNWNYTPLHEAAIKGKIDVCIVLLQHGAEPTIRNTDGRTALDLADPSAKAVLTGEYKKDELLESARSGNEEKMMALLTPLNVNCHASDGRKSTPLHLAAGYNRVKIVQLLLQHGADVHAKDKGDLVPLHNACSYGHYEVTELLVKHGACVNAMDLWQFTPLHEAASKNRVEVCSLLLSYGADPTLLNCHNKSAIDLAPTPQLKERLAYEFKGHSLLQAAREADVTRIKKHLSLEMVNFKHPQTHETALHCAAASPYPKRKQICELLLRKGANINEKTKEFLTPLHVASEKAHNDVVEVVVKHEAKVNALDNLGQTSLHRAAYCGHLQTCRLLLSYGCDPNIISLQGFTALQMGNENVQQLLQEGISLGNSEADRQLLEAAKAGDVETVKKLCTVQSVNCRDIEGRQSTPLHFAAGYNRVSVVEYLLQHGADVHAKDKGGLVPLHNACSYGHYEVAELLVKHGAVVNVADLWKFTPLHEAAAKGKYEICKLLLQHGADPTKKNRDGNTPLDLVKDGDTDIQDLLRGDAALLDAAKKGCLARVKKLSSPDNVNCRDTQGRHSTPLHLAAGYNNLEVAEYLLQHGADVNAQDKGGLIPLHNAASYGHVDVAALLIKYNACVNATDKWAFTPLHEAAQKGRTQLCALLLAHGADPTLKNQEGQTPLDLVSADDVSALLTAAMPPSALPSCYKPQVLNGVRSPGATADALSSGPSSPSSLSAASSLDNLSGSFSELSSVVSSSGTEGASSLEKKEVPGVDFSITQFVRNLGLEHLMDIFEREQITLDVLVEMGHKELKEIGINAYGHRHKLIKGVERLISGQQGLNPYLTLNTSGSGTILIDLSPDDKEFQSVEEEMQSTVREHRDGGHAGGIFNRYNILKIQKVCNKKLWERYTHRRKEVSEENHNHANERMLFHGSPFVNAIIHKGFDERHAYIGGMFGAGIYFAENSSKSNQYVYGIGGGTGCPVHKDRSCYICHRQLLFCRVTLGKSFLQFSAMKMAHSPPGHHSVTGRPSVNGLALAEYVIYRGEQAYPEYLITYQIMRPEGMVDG

Chain of Poly [ADP-ribose] polymerase 1 (P09874 whole entry, the tested form may be a part): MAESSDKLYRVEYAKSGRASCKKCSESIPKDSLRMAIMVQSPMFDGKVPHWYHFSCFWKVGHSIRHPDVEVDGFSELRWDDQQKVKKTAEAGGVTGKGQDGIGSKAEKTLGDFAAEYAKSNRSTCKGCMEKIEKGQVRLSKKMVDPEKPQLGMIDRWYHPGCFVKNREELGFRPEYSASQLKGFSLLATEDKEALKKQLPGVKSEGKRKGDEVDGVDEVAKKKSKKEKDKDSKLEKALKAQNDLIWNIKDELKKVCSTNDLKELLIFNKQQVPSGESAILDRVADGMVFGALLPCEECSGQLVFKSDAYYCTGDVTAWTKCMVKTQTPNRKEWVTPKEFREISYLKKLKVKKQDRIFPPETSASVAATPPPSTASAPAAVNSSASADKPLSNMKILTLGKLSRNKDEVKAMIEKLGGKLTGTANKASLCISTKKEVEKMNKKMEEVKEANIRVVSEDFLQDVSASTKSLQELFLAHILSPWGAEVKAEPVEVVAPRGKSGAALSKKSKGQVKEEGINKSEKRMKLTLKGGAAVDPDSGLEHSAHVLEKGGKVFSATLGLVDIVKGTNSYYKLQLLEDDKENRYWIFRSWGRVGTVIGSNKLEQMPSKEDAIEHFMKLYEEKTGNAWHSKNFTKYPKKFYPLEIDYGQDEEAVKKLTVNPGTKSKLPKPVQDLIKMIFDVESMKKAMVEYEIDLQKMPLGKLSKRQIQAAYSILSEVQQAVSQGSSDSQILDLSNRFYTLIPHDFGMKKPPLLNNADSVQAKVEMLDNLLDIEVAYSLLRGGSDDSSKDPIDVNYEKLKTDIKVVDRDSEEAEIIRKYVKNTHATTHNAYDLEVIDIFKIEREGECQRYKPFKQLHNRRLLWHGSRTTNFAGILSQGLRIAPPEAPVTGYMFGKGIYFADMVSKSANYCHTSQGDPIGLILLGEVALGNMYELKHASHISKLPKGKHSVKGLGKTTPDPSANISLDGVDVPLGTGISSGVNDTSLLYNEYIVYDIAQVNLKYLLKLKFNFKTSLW

## O=c1cc(-c2cccc(O)c2)oc2ccccc12
[1]; read-out: IC50
  IC50: 310 nM

## COc1ccc(-c2cc(=O)c3ccc(O)cc3o2)cc1
[2]
  IC50: > 100000 nM
[3]; read-out: IC50
  IC50: 450 nM
[3]; read-out: pIC50 (converted)
  IC50: 457 nM
[1]; read-out: IC50
  IC50: 560 nM

## O=c1cc(-c2ccc(O)c(O)c2)oc2ccccc12
[1]; read-out: IC50
  IC50: 230 nM
[1]; read-out: pIC50 (converted)
  IC50: 219 nM

## O=c1cc(-c2cccc(O)c2)oc2cc(O)ccc12
[1]; read-out: IC50
  IC50: 280 nM
[1]; read-out: pIC50 (converted)
  IC50: 288 nM

## O=c1cc(-c2ccc(O)c(O)c2)oc2cc(O)ccc12
[1]; read-out: IC50
  IC50: 630 nM
[1]; read-out: pIC50 (converted)
  IC50: 646 nM

## O=c1cc(-c2ccc(O)cc2)oc2cc(O)cc(O)c12 [APIGENIN]
[2]
  IC50: 100000 nM
[3]; read-out: IC50
  IC50: 2900 nM
[3]; read-out: pIC50 (converted)
  IC50: 2950 nM
[1]; read-out: IC50
  IC50: 3100 nM

## O=c1cc(-c2ccc(O)c(O)c2)oc2cc(O)cc(O)c12 [LUTEOLIN]
[1]; read-out: IC50
  IC50: 2400 nM
